Results published in paper PMC8464955, “Prediction of Drug–Drug Interaction Potential of Tegoprazan Using Physiologically Based Pharmacokinetic Modeling and Simulation” (Pharmaceutics, 2021).

Test system: CYP3A4
Assay: Inhibition of tegoprazan metabolism in human liver microsomes by CYP inhibitors
Assay type: in vitro ADME
Conditions: in-house data
From the text: The major metabolic pathway of tegoprazan is the liver, and a negligible amount is excreted by urine. Both in vitro and clinical results have elucidated that tegoprazan is a potential substrate of cytochrome P450 (CYP) 3A4. […] According to the label of tegoprazan, systemic exposure to tegoprazan increases when tegoprazan is co-administered with clarithromycin. Based on the in vitro and clinical data, it can be inferred that drug–drug interaction (DDI) between tegoprazan and CYP3A4 inhibitor may occur. However, the clinical DDI studies of tegoprazan conducted so far have been limited to the DDI between tegoprazan and clarithromycin or clarithromycin and amoxicillin, because tegoprazan is likely to be administered with these medications for Helicobacter pylori eradication. Considering the substantial prevalence of acid-related diseases, tegoprazan is likely to be administered in combination with various drugs. […]
The elimination of the PBPK model consisted of enzyme kinetic and renal clearance (Table 1). Intrinsic clearances (CLint) of tegoprazan by various CYPs were determined by an in vitro study that measured the fraction of CLint inhibited by adding the inhibitors of CYP1A2, CYP2C9, CYP2C19, CYP2D6, and CYP3A to human liver microsomes (in-house data). […]

SMILES: CC(=O)N1CCN(c2ccc(OCC3COC(Cn4ccnc4)(c4ccc(Cl)cc4Cl)O3)cc2)CC1 (stereo not shown) [ketoconazole]
- effect of CYP inhibitor on the metabolism of tegoprazan: significantly inhibited
